Experimental findings from ChEMBL document CHEMBL2074322, “Bidirectional transport of rhodamine 123 and Hoechst 33342, fluorescence probes of the binding sites on P-glycoprotein, across MDCK-MDR1 cell monolayers” (J Pharm Sci, 2004) are described below.

Holding throughout (format): functional, cell-based
Holding throughout (settings): dog

In data set [1] the target is T1, ATP-dependent translocase ABCB1 (Homo sapiens, UniProt P08183). Put plainly: TP_TRANSPORTER: transepithelial transport in MDR1-expressing MDCK cells.
T1 sequence (P08183 whole entry): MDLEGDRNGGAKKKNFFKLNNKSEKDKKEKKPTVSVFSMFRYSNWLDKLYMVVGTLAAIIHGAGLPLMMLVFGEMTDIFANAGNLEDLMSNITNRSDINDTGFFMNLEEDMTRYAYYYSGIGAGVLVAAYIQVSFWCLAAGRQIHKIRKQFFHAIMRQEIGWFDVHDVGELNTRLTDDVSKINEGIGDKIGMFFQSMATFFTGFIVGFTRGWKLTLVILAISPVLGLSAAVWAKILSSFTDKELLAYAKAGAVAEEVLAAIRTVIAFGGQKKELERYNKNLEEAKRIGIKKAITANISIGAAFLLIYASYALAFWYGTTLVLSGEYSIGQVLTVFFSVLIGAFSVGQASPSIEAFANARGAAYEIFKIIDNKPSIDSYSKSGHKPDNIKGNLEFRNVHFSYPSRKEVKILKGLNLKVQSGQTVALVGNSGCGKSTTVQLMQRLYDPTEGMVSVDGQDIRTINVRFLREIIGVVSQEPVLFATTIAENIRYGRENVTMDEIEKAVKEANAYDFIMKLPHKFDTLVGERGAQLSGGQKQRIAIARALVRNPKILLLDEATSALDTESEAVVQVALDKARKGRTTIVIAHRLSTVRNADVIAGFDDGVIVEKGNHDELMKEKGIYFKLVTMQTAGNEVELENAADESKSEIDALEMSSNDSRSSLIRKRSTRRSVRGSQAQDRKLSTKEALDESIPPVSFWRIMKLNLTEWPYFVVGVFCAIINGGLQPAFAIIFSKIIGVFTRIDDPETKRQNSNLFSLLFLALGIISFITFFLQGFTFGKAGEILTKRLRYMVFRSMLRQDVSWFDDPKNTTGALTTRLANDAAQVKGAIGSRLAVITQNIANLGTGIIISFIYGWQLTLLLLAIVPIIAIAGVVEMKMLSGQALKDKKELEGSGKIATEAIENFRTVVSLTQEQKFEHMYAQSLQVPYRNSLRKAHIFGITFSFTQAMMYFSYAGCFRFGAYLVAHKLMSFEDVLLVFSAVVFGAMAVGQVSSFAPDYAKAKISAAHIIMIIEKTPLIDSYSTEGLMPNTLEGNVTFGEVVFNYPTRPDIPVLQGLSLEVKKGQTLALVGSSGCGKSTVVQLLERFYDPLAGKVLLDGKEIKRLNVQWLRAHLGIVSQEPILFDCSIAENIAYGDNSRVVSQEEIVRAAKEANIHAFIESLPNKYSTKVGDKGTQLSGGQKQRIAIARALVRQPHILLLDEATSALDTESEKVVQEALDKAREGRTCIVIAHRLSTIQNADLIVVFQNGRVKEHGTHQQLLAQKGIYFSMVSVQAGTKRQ
Data set [2] addresses T1, ATP-dependent translocase ABCB1. Put plainly: TP_TRANSPORTER: transepithelial transport of Rhodamine 123 in the presence of Hoechst 33342 at a concentration of 5uM in MDR1-expressing MDCK cells.
The target is the same in data set [3]. The experiment in a line: TP_TRANSPORTER: transepithelial transport of Hoechst 33342 in the presence of Daunorubicin (Daunomycin) at a concentration of 80uM in MDR1-expressing MDCK cells.
Data set [4] shares this target. Put plainly: TP_TRANSPORTER: transepithelial transport of Rhodamine 123 in the presence of Daunorubicin (Daunomycin) at a concentration of 80uM in MDR1-expressing MDCK cells.

Turning to `COC(=O)c1ccccc1-c1c2ccc(=N)cc-2oc2cc(N)ccc12.Cl` [RHODAMINE123], the Activity result in data set [1] is “substrate [+]”. Turning to `CCOc1ccc(-c2nc3cc(-c4nc5cc(N6CCN(C)CC6)ccc5[nH]4)ccc3[nH]2)cc1`, the Activity result in data set [1] is “substrate [+]”; in data set [2], “inhibitor [+]”.

Turning to `COc1cccc2c1C(=O)c1c(O)c3c(c(O)c1C2=O)C[C@@](O)(C(C)=O)C[C@@H]3O[C@H]1C[C@H](N)[C@H](O)[C@H](C)O1` [DAUNORUBICIN], the Activity entry in data set [3] and in data set [4] was “inhibitor [+]” throughout.
